The results in this text go back to ChEMBL document CHEMBL3860092, “Recent progress on the discovery of antiamoebic agents” (Bioorg Med Chem Lett, 2016).

Data set [1] has as its system Entamoeba histolytica. Put plainly: Antiamoebic activity against Entamoeba histolytica HM-1:IMSS trophozoites after 72 hrs by microdilution method. The format is functional. (In general: In broth dilution the organism is exposed to a series of concentrations in liquid medium.)
The nature of data set [2]: Cytotoxicity against mouse Melan-a cells assessed as reduction in cell viability after 48 hrs by MTT assay. The format is toxicity. A general note: Tetrazolium dyes change colour on reduction, which living cells bring about.

SMILES strings stand for the structures. pIC50: −log10 of the molar value.

Turning to `Cc1ncc([N+](=O)[O-])n1CCOC(=O)Nc1ccc(OCc2ccc(F)cc2)cc1`, the pIC50 in data set [1] is 7.10. In addition, in data set [2], the IC50 at 48 h was greater than 50000 nM.

For the compound `Cc1ncc([N+](=O)[O-])n1CCO` [METRONIDAZOLE], the pIC50 in data set [1] was 5.75.

Consider `Cc1ncc([N+](=O)[O-])n1CCOC(=O)Nc1ccc(OCc2ccc(F)c(F)c2)cc1`, for which the negative logarithm of the IC50 (pIC50) in data set [1] was 6.59. Besides, the IC50 at 48 h in data set [2] is greater than 50000 nM.

Take `Cc1ncc([N+](=O)[O-])n1CCOC(=O)Nc1ccc(OCc2cccc(Cl)c2)cc1`: the negative-log IC50 (pIC50) in data set [1] is 6.82. The IC50 at 48 h in data set [2] is greater than 50000 nM.

`Cc1ncc([N+](=O)[O-])n1CCOC(=O)Nc1ccc(OCc2ccc(C#N)cc2)cc1` showed a pIC50 in data set [1] of 6.59. Further, the IC50 at 48 h in data set [2] was greater than 50000 nM.

Consider `Cc1ncc([N+](=O)[O-])n1CCOC(=O)Nc1ccc(OCc2ccc(C(F)(F)F)cc2)cc1`, for which the negative logarithm of the IC50 (pIC50) in data set [1] was 6.62. In data set [2], the IC50 at 48 h is greater than 50000 nM.

As a reminder, the pIC50 is the negative decadic logarithm of the IC50, by convention in mol/L. By IC50 is commonly meant the concentration that gives 50% inhibition.
